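Cultured in 96-well plates, cells were exposed to test compound for 48 hours across five concentrations. GI50 = concentration required for 50% inhibition of growth. TGI denotes the concentration required for complete inhibition of growth.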
Tests used:
Experiment in all cases: inhibition of tumour cell growth, NCI panel, 48 h
[1] = tested on: SF-539 CNS
[2] = tested on: HL-60(TB) leukemia
[3] = tested on: SF-268 CNS
[4] = tested on: NCI-H226 lung
[5] = tested on: SR leukemia
[6] = tested on: HCT-15 colon
[7] = tested on: UO-31 renal
[8] = tested on: SF-295 CNS
[9] = tested on: MCF7 breast
[10] = tested on: BT-549 breast

| SMILES | TGI [1] [µM] | TGI [2] [µM] | TGI [3] [µM] | TGI [4] [µM] | TGI [5] [µM] | TGI [6] [µM] | TGI [7] [µM] | TGI [8] [µM] | GI50 [1] [µM] | GI50 [9] [µM] | TGI [9] [µM] | GI50 [3] [µM] | GI50 [5] [µM] | GI50 [6] [µM] | GI50 [7] [µM] | GI50 [8] [µM] | GI50 [10] [µM] | TGI [10] [µM] | GI50 [2] [µM] | GI50 [4] [µM] |
| --- | --- | --- | --- | --- | --- | --- | --- | --- | --- | --- | --- | --- | --- | --- | --- | --- | --- | --- | --- | --- |
| N#CCN1C(=O)c2cc([N+](=O)[O-])cc3cc([N+](=O)[O-])cc(c23)C1=O | 31.8 | > 24.1 | 48.8 | 49.9 | 12.6 | 20.3 | 32 | > 100 | – | – | – | – | – | – | – | – | – | – | – | – |
| COc1cc2ncc3c(nc4sccn43)c2cc1OC | 55.2 | – | > 100 | – | 41.7 | > 100 | > 100 | 62.8 | 15.6 | 36.8 | > 100 | > 100 | 12.4 | 11.1 | 33.6 | 18.3 | 37.1 | > 100 | – | – |
| CSc1ccc(C2=NN(C(C)=O)C(c3ccc(-c4ccc(Cl)cc4)o3)C2)cc1 (centres undefined) | > 100 | > 100 | 71.4 | > 100 | – | > 100 | > 100 | > 100 | 60.2 | 39.9 | > 100 | 21.7 | – | 23.2 | 28.5 | 34 | 76.4 | > 100 | 15.3 | 44.4 |
| c1cc(N2CCN(c3ccc(C4=NCCCN4)cc3)CC2)ccc1C1=NCCCN1 | > 100 | > 89 | > 100 | > 100 | – | > 100 | > 100 | > 100 | > 74.5 | > 57.5 | > 100 | > 75.8 | – | > 100 | > 100 | > 25.1 | > 100 | > 100 | – | 59.3 |
| O=C(O)c1ccccc1NC(=S)c1ccccc1 | > 100 | 98.3 | > 100 | – | – | > 100 | > 100 | > 100 | – | – | > 100 | – | – | – | – | – | – | > 100 | – | – |
| O=c1c2cc(F)ccc2sc2c(NCCCNCCO)nc3ccccc3c12 | 3.19 | 4.02 | 3.21 | 3 | – | 3.12 | 2.96 | 3.26 | 1.74 | 1.41 | 2.94 | 1.59 | – | 1.63 | 1.57 | 1.77 | 8.7 | 22 | 2 | 1.5 |
| COc1ccc(/C=C(\C)[N+](=O)[O-])cc1OC | 3.17 | – | 5.46 | 40.5 | > 100 | 3.54 | 3.2 | 32.3 | 1.74 | 1.35 | 3.25 | 2.26 | 2.04 | 1.4 | 1.68 | 17.8 | 1.86 | 3.36 | – | 19.2 |
| Cn1ccnc1Oc1ccc(Cl)cc1 | 31.7 | 11.1 | 99.4 | 44.3 | – | 23.9 | 23.9 | – | – | – | 38.3 | – | – | – | – | – | – | 65.7 | – | – |
| C/C(=N\O)c1cccc(Nc2cc(-n3ccnc3)c3ccccc3n2)c1 | 33.5 | – | > 100 | 20.9 | – | 22.6 | 34.6 | 22.8 | 17.2 | > 100 | > 100 | > 100 | – | 9.26 | 13.8 | 8.16 | 17 | 35.1 | – | 3.59 |
| N[C@H](COCc1ccccc1)c1ccccc1 | 75.1 | 30.8 | > 100 | 77.5 | 56 | > 79.4 | 87.4 | 82.5 | – | – | – | – | – | – | – | – | – | – | – | – |
| C=C1[C@@H](O)O[C@H]2[C@H]1C[C@H](OC(C)=O)[C@]13C(=O)O[C@H]4C[C@](C)(O)[C@H]([C@H]41)C31C=C(C)[C@]2(O)O1 | 52 | > 100 | > 100 | – | > 100 | > 100 | 74.1 | > 100 | 21.1 | 25.8 | 54.7 | 34.5 | 40.9 | 49.2 | 27.2 | 4.03 | – | – | 61.8 | – |
| Cc1ccncc1C(N)=O | > 100 | > 100 | > 100 | > 100 | > 100 | > 100 | > 100 | > 100 | > 100 | > 100 | > 100 | > 100 | > 100 | > 100 | > 100 | > 100 | – | – | > 100 | > 100 |
